Source: patent US20190290620A1, “APPLICATIONS OF NOVEL THIAZOLE DERIVATIVE IN TREATING INFLAMMATORY BOWEL DISEASES” (EAST CHINA UNIVERSITY OF SCIENCE AND TECHNOLOGY, priority 2016, published 2019)
Marks after values point to notes of the source that are not given here.

System: TNBS-induced ulcerative colitis model mice
Test: TNBS-induced mice ulcerative colitis model
Format: in vivo, BALB/c male mice
Parameters: key to Scores of gross morphological damages: 0 = no adhesion/ulcer/inflammation, 4+ = severe ulcers (+1 per cm)
Details: for Score (body weight index according to the disease activity index, DAI): 0-4 points by weight decrease; for Score (body weight index according to the disease activity index, DAI) / Length of the colon / Weight of the colon / Histopathology scores / Scores of gross morphological damages / weight/length ratio (average) of colon: ig 7 days, sulfasalazine 500 mg/kg; for Score (body weight index according to the disease activity index, DAI) / Length of the colon / Weight of the colon / Histopathology scores / Scores of gross morphological damages / weight/length ratio (average) of colon / Ratio of weight loss: compound 20 mg/kg; for Length of the colon / Weight of the colon: 24 hours after last administration; for Histopathology scores: H&E colon sections, epithelial cells and inflammatory cell infiltration points; for Scores of gross morphological damages: colon adhesion, ulceration, inflammation points; for weight/length ratio (average) of colon: colon weight (g) / length (cm); for Ratio of weight loss: ig daily for 7 days from day of modeling, positive drug sulfasalazine 500 mg/kg, 10 mice per group
Protocol: BALB/c male mice (each 18-22 g) of SPF level were purchased from Shanghai Slack Laboratory Animal Co., Ltd. and were used in experiments after adaptive feeding for 7 days.
BALB/c male mice were kept in an animal cage (daylight and darkness of 12 hours, respectively) at a temperature of 20-25° C. and relative humidity of 50-60%, free access to food and water.
Mice were randomly divided into normal control group, trinitrobenzenesulfonic acid (TNBS) model group, drug treatment group and positive drug control group (sulfasalazine 500 mg/kg).
All of the mice in model group and administration group were shaved in the abdomen (area 2×2 cm) and sensitized with 1% TNBS (dissolved in 50% ethanol). On the 7th day, the mice were fasted, but not water. After 24 hours, the mice were anesthetized through intraperitoneal injection of 0.1 ml of 10% chloral hydrate and 2% TNBS was used for lavation to establish a mouse model of ulcerative colitis. A gavage needle for rat was inserted into the colon of a mouse, the tip of the needle was about 3˜3.5 cm away from the anus, and 0.1 ml of modeling solution (5% TNBS and deionized water were mixed at a volume ratio of 4:1, and the obtained solution was mixed with absolute ethanol at a volume ratio of 1:1, so as to obtain the modeling solution) was injected. The mice were put back into the cage and wake up naturally. The mice in the normal control group were injected with 0.12 ml of solvent (50% ethanol solution) by the same manner.
Administration was started on the day of modeling (using 0.5% sodium carboxymethylcellulose, CMC-Na) for 7 consecutive days.
At 24 hours after the last administration, the mice were sacrificed by cervical dislocation, the peritoneum was cut open, and the whole colon was taken. The intestine was cut longitudinally along the mesenteric margin, rinsed with ice physiological saline, placed on ice, and the pathological changes of the colon were observed. The fat and mesentery were removed, the water was blotted with filter paper, the weight of the colon was weighed and the length was measured. The colon was fixed in 4% formaldehyde for more than 24 hours, dehydrated, paraffin-embedded and H&E stained, and the pathological sections were observed.
The mice were observed and recorded daily for mental state, fur color, and activities. The mice was weighed daily and observed for the stool traits. The body weight index according to the disease activity index (DAI) is as follows:
After the colon of a mouse was removed, the weight of the colon was measured with a precision electronic balance, the length was measured with a vernier caliper, and the weight/length ratio of the colon was calculated.
The criteria for scores were: no adhesion, no ulcer, no inflammation, 0 points; mild adhesion, local congestion, no ulcer, 1 point; severe adhesion, 1 ulcer (area less than 1 cm), no obvious inflammation, 2 points; more than 1 ulcers (area less than 1 cm) with inflammation, 3 points; 2 severe ulcers (area greater than 1 cm) with inflammation, 4 points; and 1 point for each 1 cm increase in ulcer area.
Pathological changes of colon tissue were observed under light microscope, and the scores were recorded. The criteria for scores are as follows:
1) Epithelial cells: normal morphology, 0 points; loss of goblet cells, 1 point; large loss of goblet cells, 2 points; loss of crypt cells, 3 points; large loss of crypt cells, 4 points.
2) Infiltration of inflammatory cells: no infiltration, 0 points; infiltration in the basal layer of the crypt, 1 point; infiltration to the muscular layer of the mucosa, 2 points; infiltration to the muscular layer of the mucosa with mucosal thickening and obvious edema, 3 points; infiltration to the submucosal layer, 4 points.
Data were expressed as […] (mean±S.E.M.), data were analyzed using SPSS statistical software, and one-way ANOVA and Tukey's HSD post hoc test were used for comparison between groups. p<0.05 was considered statistically significant.

Row | Compound | Score (body weight index according to the disease activity index, DAI) | Length of the colon [cm] | Weight of the colon [g] | Histopathology scores | Scores of gross morphological damages | weight/length ratio (average) of colon | Ratio of weight loss | diarrhea of the mice (general condition) (FIG. 2, TNBS-mediated UC model BALB/c mice, Compound 16 in three different dosage groups, sulfasalazine control group) | effect on colonic lesions, comparison of dosages (FIG. 3, 5 mg/kg) | extent of ulcer lesions of colon and visceral adhesions (FIG. 3, compound 312 at 5 mg/kg, 20 mg/kg, 50 mg/kg and positive drugs, vs model group) | histopathology of colon, comparison of dosages (FIG. 4, 5 mg/kg and 50 mg/kg vs 20 mg/kg) | histopathology of colon (HE staining, mucosal integrity / lesions) (FIG. 4, compared with the model group)
1 | CN(/N=C/c1ccccc1C(=O)O)c1nc(-c2ccccc2Cl)cs1 [Compound 1, (E)-4-(2-chlorophenyl)-2-[1-methyl-2-(2-carboxybenzylidene)hydrazino]thiazole] | 1 | 5.575 ± 0.452 | 0.162 ± 0.027 | 2.54 ± 0.62 | 2.32 ± 0.69 | 0.029# | 2.61 ± 4.53 |  |  |  |  | 
2 | CCN(/N=C/c1ccccc1C(=O)O)c1nc(-c2ccccc2Cl)cs1 [Compound 2, (E)-4-(2-chlorophenyl)-2-[1-ethyl-2-(2-carboxybenzylidene)hydrazino]thiazole] | 1 |  |  | 3.10 ± 0.55 | 3.37 ± 0.60 |  | 1.22 ± 3.68 |  |  |  |  | 
3 | CCCN(/N=C/c1ccccc1C(=O)O)c1nc(-c2ccccc2Cl)cs1 [Compound 3, (E)-4-(2-chlorophenyl)-2-[1-propyl-2-(2-carboxybenzylidene)hydrazino]thiazole] | 2 | 5.699 ± 0.368 | 0.159 ± 0.023 |  |  | 0.028# | 4.26 ± 4.65 |  |  |  |  | 
4 | CN(/N=C/c1ccc(C(F)(F)F)cc1C(=O)O)c1nc(-c2ccccc2Cl)cs1 [Compound 8, (E)-4-(2-chlorophenyl)-2-[1-methyl-2-(4-trifluoromethyl-2-carboxybenzylidene)hydrazino]thiazole] | 1 | 6.005 ± 0.452 | 0.157 ± 0.027 | 1.59 ± 0.68 | 1.42 ± 0.78 | 0.026# | 1.07 ± 2.98 |  |  |  |  | 
5 | O=C(O)c1cc(C(F)(F)F)ccc1/C=N/Nc1nc(-c2ccccc2Cl)cs1 [Compound 8-1] | 1 |  |  |  |  |  | 3.72 ± 1.60 |  |  |  |  | 
6 | Cc1ccc(/C=N/N(C)c2nc(-c3ccccc3Cl)cs2)c(C(=O)O)c1 [Compound 9, (E)-4-(2-chlorophenyl)-2-[1-methyl-2-(4-methyl-2-carboxybenzylidene)hydrazino]thiazole] | 1 |  |  |  |  |  | 3.29 ± 4.70 |  |  |  |  | 
7 | Cc1ccc(/C=N/Nc2nc(-c3ccccc3Cl)cs2)c(C(=O)O)c1 [Compound 9-1] |  | 5.985 ± 0.363 | 0.152 ± 0.023 | 3.94 ± 0.51 | 3.63 ± 0.71 | 0.025# |  |  |  |  |  | 
8 | CN(/N=C/c1ccc(F)cc1C(=O)O)c1nc(-c2ccccc2Cl)cs1 [Compound 10, (E)-4-(2-chlorophenyl)-2-[1-methyl-2-(2-carboxyl-4-fluorobenzylidene)hydrazino]thiazole] | 1 | 6.321 ± 0.436 | 0.162 ± 0.045 | 2.09 ± 0.44 | 1.02 ± 0.41 | 0.026# | 1.92 ± 3.20 |  |  |  |  | 
9 | Cc1sc(N(C)/N=C/c2ccccc2C(=O)O)nc1-c1ccccc1 [Compound 12, (E)-5-methyl-4-phenyl-2-[11-methyl-2-(2-carboxybenzylidene)hydrazino]thiazole] | 1 | 5.075 ± 0.468 | 0.154 ± 0.012 |  |  | 0.030# | 2.33 ± 2.99 |  |  |  |  | 
10 | Cc1sc(N/N=C/c2ccccc2C(=O)O)nc1-c1ccccc1Cl [Compound 15, (E)-5-methyl-4-(2-chlorophenyl)-2-(2-carboxylbenzylidenehydrazino)thiazole] |  | 5.546 ± 0.402 | 0.163 ± 0.023 |  |  | 0.029# |  |  |  |  |  | 
11 | O=C(O)c1ccccc1/C=N/Nc1nc(-c2ccccc2Cl)cs1 [Compound 16, (E)-4-(2-chlorophenyl)-2-(2-carboxybenzylidenehydrazino)thiazole] | 1 |  |  | 2.54 ± 0.49 | 2.22 ± 0.54 |  | 3.55 ± 1.47 | relieved compared with the model group | best effect on colonic lesions | can improve the extent of ulcer lesions of colon and visceral adhesions | more effective than those at 20 mg/kg | mucosal integrity was improved to a greater extent
12 | Cc1sc(N/N=C/c2ccccc2C(=O)O)nc1-c1ccccc1 [Compound 17, (E)-5-methyl-4-phenyl-2-(2-carboxylbenzylidenehydrazino)thiazole] |  | 5.124 ± 0.332 | 0.159 ± 0.034 |  |  | 0.030# |  |  |  |  |  | 
13 | CN(/N=C/c1ccccc1C(=O)O)c1nc(-c2ccccc2)cs1 [Compound 20, (E)-4-phenyl-2-[1-methyl-2-(2-carboxybenzylidene)hydrazino]thiazole] |  |  |  | 3.65 ± 0.42 | 3.33 ± 0.59 |  |  |  |  |  |  | 
14 | CN(/N=C/c1ccccc1C(=O)O)c1nc(-c2cccc(Cl)c2)cs1 [Compound 21, (E)-4-(3-chlorophenyl)-2-[1-methyl-2-(2-carboxybenzylidene)hydrazino]thiazole] |  | 4.986 ± 0.452 | 0.158 ± 0.025 | 2.54 ± 0.62 | 2.31 ± 0.79 | 0.032# |  |  |  |  |  | 
15 | CN(/N=C/c1cc(F)c(F)cc1C(=O)O)c1nc(-c2ccccc2Cl)cs1 [Compound 23] | 3 | 4.997 ± 0.476 | 0.153 ± 0.027 | 2.32 ± 0.58 | 2.02 ± 0.60 | 0.030# | 6.27 ± 2.76 |  |  |  |  | 
16 | O=C(O)c1ccccc1/C=N/Nc1nc(-c2cc(Cl)ccc2Cl)cs1 [Compound 55, (E)-2-((2-(4-(2,5-dichlorophenyl)thiazol-2-yl)hydrazono)methyl)benzoic Acid] | 1 | 5.675 ± 0.222 | 0.148 ± 0.033 | 1.68 ± 0.32 | 1.99 ± 0.52 | 0.026# | 2.74 ± 4.61 |  |  |  |  | 
17 | O=C(O)c1c(F)cccc1/C=N/Nc1nc(-c2ccccc2Cl)cs1 [Compound 58, (E)-2-((2-(4-(2-chlorophenyl)thiazol-2-yl)hydrazono)methyl)-6-fluorobenzoic Acid] |  | 5.575 ± 0.392 | 0.162 ± 0.028 | 3.59 ± 0.61 | 4.32 ± 0.79 | 0.029# |  |  |  |  |  | 
